Measured values as given in patent US20050084468A1, “Antimicrobial cleaning composition” (Colgate-Palmolive Company, priority 2003, published 2005).

How the values were obtained:
Type in all cases: cell-based
[1] = test system: wild germs from hand's volunteers (mainly Staphylococcus epidermitis); assay: Lasting antibacterial protection, PHMB-Mucin in surfactant solutions; conditions: surfactant solution alone (NO PHMB-Mucin), 2.5% AI in water
Method: (§1) Ceramic tiles are treated with 200 μl of the solutions to test; untreated tiles are used as reference. After overnight drying of the treatment, tiles are rinsed with 2×10 ml deionized water and let dry for 1 hour. Tiles are then inoculated in the horizontal position for 5 hours with 200 μl of a suspension of wild germs from hand's volunteers (mainly Staphylococcus epidermitis). After rinsing of the surface with 2×10 ml sterile tap water to remove the germs source, the contamination of the surface is determined by direct imprint with Tryptic Soy Agar plates (a nutritive gelified support). Colony forming units (=cfu=microorganisms) are counted after 48 hours incubation at RT.
PHMB-Mucin in Surfactant Solutions
Test methodology is described under example II. We considered nonionic surfactants (Neodols), anionics (SLS, PS), and amphoteric (CAPB) at 2.5% Al in water. The mixture is Neodol 91-8 1.25%, Neodol 91-5 0.25%, CAPB 0.45%, PS 0.5%.

[2] = test system: wild germs from hand's volunteers (mainly Staphylococcus epidermitis); assay: Lasting antibacterial protection, stronger rinsing with water
Method: as §1
Stronger Rinsing with Water:
Methodology is the same as described under example II but rinsing is operated either with 2×10 ml or 5×10 ml water or with a tap water shower head during 30 sec.

[3] = test system: wild germs from hand's volunteers (mainly Staphylococcus epidermitis); assay: Lasting antibacterial protection of the surface (treated ceramic tiles, imprint cfu count); conditions: tiles rinsed 2×10 ml deionized water; inoculated 5 hours; counted after 48 hours at RT
Method: as §1, with “Measure” for “Ceramic tiles are treated with 200 μl”, “Lasting Antibacterial Protection of the Surface […]” for “solutions to test; untreated tiles are used as reference.”, “[…]).” for “epidermitis).”

[4] = rinsing tap water shower head 30 sec.

Molecule | cfu/tile - average on 3 replicates ([1]; series of PHMB 0.06%-Mucin 0.03%) [cfu/tile] | cfu/tile - average on 3 replicates ([1]; series of PHMB 0.09%-Mucin 0.05%) [cfu/tile] | cfu/ceramic tile average on 3 replicates ([2]; rinsing 2 × 10 ml water) [cfu/ceramic tile] | cfu/ceramic tile average on 3 replicates ([2]; rinsing 5 × 10 ml water) [cfu/ceramic tile] | cfu/ceramic tile average on 3 replicates [2, 4] [cfu/ceramic tile] | Cfu/ceramic tile Average on 3 replicates [3] [Cfu/ceramic tile]
CCCCCCCCCCCCOS(=O)(=O)[O-].[Na+] [SLS, sodium lauryl sulfate] | 277 ± 34 | 77 ± 25 |  |  |  | 
mucin [Mucin 0.1%] |  |  | 50 ± 19 | 129 ± 36 | 149 ± 5 | 82 ± 15
mucin [Mucin 0.03%] |  |  | 37 ± 3 | 118 ± 43 | 145 ± 8 | 110 ± 18
mucin [Mucin 0.05%] |  |  | 26 ± 7 | 98 ± 23 | 72 ± 17 | 68 ± 12
